Measured values published in patent US8273768B2, “Iso CA-4 and analogues thereof as potent cytotoxic agents inhibiting tubuline polymerization” (Centre National de la Recherche Scientifique (CNRS), priority 2007, dated 2012).
Like-named read-outs stand apart in the source and are kept apart here.

Assays:
[1] = test system: mouse leukemic P-388 cells; conditions: cited from earlier work
[2] = target: T1, purified tubulin from pig brains (Sus scrofa, UniProt P02550+P02554); experiment: Inhibition of polymerization of tubulin (turbidimetry); format: biochemical; conditions: pig brain tubulin, turbidimetry at 350 nm
T1 construct: from pig brains, where it forms 20-25% of the soluble proteins; from tissue; host or cells: pig brain
Protocol: Tests relating to the inhibition of polymerization of tubulin were carried out on compounds which had the best cytotoxic activities. These tests were carried out on purified tubulin by the Shelanski method (Shelanski, M. C.; Gaskin, F.; Cantor, C. R. Proc. Natl. Acad. Sci. USA, 1973, 70, 765-768) from pig brains, where it forms 20-25% of the soluble proteins. Purification method is based on temperature-dependent assembling-disassembling cycles. Polymerization of tubulin was tracked with turbidimetry according to the Gaskin method (Gaskin, F.; Cantor, C. R.; Shelanski, M. L. J. Bio. Mol. 1974, 89, 737) at a wavelength of 350 nm. The different samples were dissolved in DMSO and incubated for 10 minutes at 37° C. and then for 5 minutes at 0° C.
The CA-4 compound and DMSO were taken as references.
The tests have shown for these compounds an activity inhibiting polymerization of tubulin similar to the one of the reference compound CA-4 (of the order of only one micromolar concentration to a few tens of micromolar concentrations).

HCT116 = experiment: Study of cytotoxicity (CellTiter-Blue, 72 hours); format: cell-based; conditions: Homo sapiens, HCT-116; 72 hours of incubation; read-out: IC50 for different cell lines: HCT116
Protocol: (§1) The biological activity of the compounds of the invention was studied in vitro on 7 human cancer cell lines with different tissue origins (HCT116: colorectal carcinoma; K562: chronic myeloid leukemia; B16-F10: melanoma; U87: glioblastoma; A549: lung cancer and MDA-MB 231 and MDA-MB 435: breast cancer). The cells selected for the study were incubated at 37° C. in the presence of one of the compounds added into the culture medium at different concentrations. The whole of the conducted experiments allowed determination of the toxicity level of the tested compound, its effect on the course of the cell cycle as well as its capacity of inducing cell death by apoptosis.
(§2) The cancer cell lines originate from the American Type Culture Collection (Rockville, Md., USA) and were grown according to the recommendations of the supplier.
(§3) The cells A549, U87, MDA-MB231, MDA-MB435 and B16F10 were grown in a culture medium “Dulbecco minimal essential medium” (DMEM) containing 4.5 g/L of glucose and supplemented with 10% fetal calf serum and 1% glutamine. The K562 and HCT116 were grown in an RPMI 1640 medium containing 10% fetal calf serum and 1% glutamine. All the cell lines were maintained in the culture at 37° C. in a humid atmosphere containing 5% of CO2. Cell viability was evaluated by using the reagent “CellTiter-Blue™” (Promega, Wis., USA) while observing the instructions of the manufacturer. The cells were sown in 96-well culture plates with 5000 cells per well in 50 μL of culture medium. After 24 hours of culture, the compounds of general formula (I) dissolved in DMSO were individually added into each of the wells in an amount of 50 μl per well. All the compounds were tested in triplicate for each defined concentration and each experiment was repeated three times. After 72 hours of incubation, 20 μL of resazurin were added in each well. After 2 hours of incubation, the emitted fluorescence was measured at 590 nm after excitation at 560 nm by means of a fluorescence reader of the Victor type (Perkin-Elmer, USA).
(§4) The concentration of each of the compounds which induces the death of 50% of the cells (IC50) was determined after 72 hours of incubation. Certain compounds according to the invention have an IC50 of the order of one nanomolar concentration, therefore equivalent to CA-4 taken as a reference.

MDA-MB 435 = experiment: Study of cytotoxicity (CellTiter-Blue, 72 hours); format: cell-based; conditions: Homo sapiens, read-out: IC50 for different cell lines: M435
Protocol: as §1, §2, §3, §4

MDA-MB 231 = experiment: Study of cytotoxicity (CellTiter-Blue, 72 hours); format: cell-based; conditions: Homo sapiens, read-out: IC50 for different cell lines: M231
Protocol: as §1, §2, §3, §4

A549 = experiment: Study of cytotoxicity (CellTiter-Blue, 72 hours); format: cell-based; conditions: Homo sapiens, read-out: IC50 for different cell lines: A549
Protocol: as §1, §2, §3, §4

U87 = experiment: Study of cytotoxicity (CellTiter-Blue, 72 hours); format: cell-based; conditions: Homo sapiens, U-87 MG, read-out: IC50 for different cell lines: U87
Protocol: as §1, §2, §3, §4

HCT 15 cells = conditions: read-out: IC50, cytotoxic activity; cited from earlier work
[3] = test system: mouse colon adenocarcinoma 26; conditions: cited from earlier work
[4] = test system: human colon tumors LS174T xenografted in Nude mice; experiment: Antivascular activity in vivo (MRI, Dotarem entry into tumors); conditions: LS174T xenograft, 3 hours after administration, DMXAA 27.5 mg/kg IP, (I-1) 45 mg/kg IV
Protocol: The antivascular effect of the molecule (I-1) was tested on mice bearing human tumors by comparison with the positive control DMXAA, according to the procedure described by Beauregard et al. (NMR Biomed., 2002, 15:99-105).
Thus, CD-1 Nude female mice were xenografted by subcutaneous injection of human colon tumoral cells (LS174T). The mice bearing tumors were then treated with 0.9% NaCl (carrier, 10 mL/kg), DMXAA (27.5 mg/kg) via an intraperitoneal route (IP) or the molecule (I-1) (45 mg/kg) via an intravenous route (IV). Three hours after administration, the mice were treated with the Dotarem® contrast agent intravenously (IV). The penetration of the contrast agent into the tumors was followed in real time by magnetic resonance imaging (MRI) and is expressed by an enhancement of the intensity of the signal in the tumors. Densitometric analysis of the acquired images allows determination of the maximum enhancement (Rmax) as well as the slope P0 corresponding to the entry rate of Dotarem® into the tumors.

[5] = MDA-MB-435, 72 hours of incubation
[6] = MDA-MB-231, 72 hours of incubation

T1 sequence (P02554 whole entry): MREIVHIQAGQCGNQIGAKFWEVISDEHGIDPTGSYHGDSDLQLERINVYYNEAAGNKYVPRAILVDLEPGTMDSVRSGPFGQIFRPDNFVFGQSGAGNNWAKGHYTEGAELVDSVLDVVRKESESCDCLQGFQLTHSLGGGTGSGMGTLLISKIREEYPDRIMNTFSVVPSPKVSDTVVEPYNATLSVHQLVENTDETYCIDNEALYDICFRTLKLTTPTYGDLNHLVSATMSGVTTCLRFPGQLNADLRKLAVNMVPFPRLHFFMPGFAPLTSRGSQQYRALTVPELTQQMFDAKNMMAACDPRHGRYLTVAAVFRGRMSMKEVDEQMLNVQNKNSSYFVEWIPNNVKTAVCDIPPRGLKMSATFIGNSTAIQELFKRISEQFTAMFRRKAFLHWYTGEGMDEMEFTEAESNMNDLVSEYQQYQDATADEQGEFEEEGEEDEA
T1 sequence (P02550 whole entry): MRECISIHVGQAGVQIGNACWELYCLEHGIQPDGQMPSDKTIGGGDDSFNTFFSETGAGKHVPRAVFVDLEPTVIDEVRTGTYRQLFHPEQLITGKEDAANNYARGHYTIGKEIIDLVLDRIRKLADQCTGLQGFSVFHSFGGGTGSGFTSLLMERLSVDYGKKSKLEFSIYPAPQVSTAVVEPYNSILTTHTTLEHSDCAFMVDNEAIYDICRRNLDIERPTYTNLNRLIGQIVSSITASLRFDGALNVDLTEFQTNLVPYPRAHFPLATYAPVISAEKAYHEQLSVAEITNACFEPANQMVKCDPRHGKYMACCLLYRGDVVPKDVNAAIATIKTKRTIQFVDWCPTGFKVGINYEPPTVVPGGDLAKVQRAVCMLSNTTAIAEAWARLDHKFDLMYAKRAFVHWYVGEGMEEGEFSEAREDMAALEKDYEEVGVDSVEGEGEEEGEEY

In the case of `COc1ccc(C=Cc2cc(OC)c(OC)c(OC)c2)cc1O` (single isomer, unassigned) [E isomer of CA-4], the “Cytotoxic activity, times weaker than the natural Z isomer” value [1] is listed as “about 60 times”.
`C=C(c1ccc(OC)cc1)c1cc(OC)c(OC)c(OC)c1` [(I-2)] showed an IC50 [2] of 2 to 3.3 µM, an IC50 (HCT116) of 0.042 µM and an IC50 (MDA-MB 435; [5]) of 0.025 µM. The IC50 (MDA-MB 231; [6]) was 0.04 µM and the IC50 (A549; A549, 72 hours of incubation) was 0.028 µM.
Work on `C=C(c1ccc(OC)c(OC(C)=O)c1)c1cc(OC)c(OC)c(OC)c1` [(I-6)] yielded an IC50 (HCT116) of 0.008 µM, an IC50 (U87; 72 hours of incubation) of 0.018 µM and an IC50 (MDA-MB 435; [5]) of 0.011 µM. The IC50 (MDA-MB 231; [6]) was 0.009 µM and the IC50 (A549; A549, 72 hours of incubation) was 0.025 µM.
Compound `C=C(c1ccc(OC)c(OC(=O)C(C)(C)C)c1)c1cc(OC)c(OC)c(OC)c1` [(I-7)] has an IC50 (HCT116) of 0.008 µM, an IC50 (U87; 72 hours of incubation) of 0.015 µM and an IC50 (MDA-MB 435; [5]) of 0.025 µM. The IC50 (MDA-MB 231; [6]) was 0.05 µM and the IC50 (A549; A549, 72 hours of incubation) was 0.028 µM.
For `C=C(c1ccc(OC)c(OC(=O)CCCc2ccc(N(CCCl)CCCl)cc2)c1)c1cc(OC)c(OC)c(OC)c1` [(I-8)], the IC50 (HCT116) was 0.025 µM, the IC50 (U87; 72 h) was 0.035 µM and the IC50 (MDA-MB 435; MDA-MB-435, 72 h) was 0.04 µM. For the same compound, the IC50 (MDA-MB 231; MDA-MB-231, 72 h) was 0.05 µM and the IC50 (A549; A549, 72 h) was 0.042 µM.
`C=C(c1ccc(OC)c(N)c1)c1cc(OC)c(OC)c(OC)c1` [(I-17)] gave an IC50 [2] of 1.8 µM, an IC50 (MDA-MB 231; [6]) of 0.006 µM and an IC50 (A549; A549, 72 hours of incubation) of 0.008 µM.
`C=C(c1ccc(OC)c(F)c1)c1cc(OC)c(OC)c(OC)c1` [(I-22)] gave an IC50 [2] of 4.1 µM and an IC50 (HCT116) of 0.007 µM.
With `C=C(c1ccc(OC)c(OC(=O)[C@@H](COC(C)(C)C)NC(=O)OCC2c3ccccc3-c3ccccc32)c1)c1cc(OC)c(OC)c(OC)c1` [(I-32)] the IC50 (HCT116) was 0.008 µM.
`C=C(c1ccc(OC)c(OC(=O)c2ccncc2)c1)c1cc(OC)c(OC)c(OC)c1` [(I-34)] showed an IC50 (HCT116) of 0.003 µM.
For `C=C(c1ccc(OC)c(OC(=O)CCC(=O)O)c1)c1cc(OC)c(OC)c(OC)c1` [(I-35)], the IC50 (HCT116) was 0.005 µM.
In the case of `C=C(c1ccc(OC)c(OC(=O)CN(C)C)c1)c1cc(OC)c(OC)c(OC)c1` [(I-36)], the IC50 (HCT116) is reported as 0.003 µM.
Compound `C=C(c1ccc(OC)c(OC(=O)Cc2cccc3c(=O)c4ccc(C)c(C)c4oc23)c1)c1cc(OC)c(OC)c(OC)c1` [(I-45)] has an IC50 (HCT116) of 0.007 µM.
For `COc1ccc(/C=C\c2cc(OC)c(OC)c(OC)c2)cc1O` [CA-4, combrestatatin A-4], the IC50 (HCT 15 cells) is given as 0.0009 µM and the “Antitumoral activity in vivo” value [3] is given as “no antitumoral activity is observed”.
With `Cc1ccc2c(=O)c3cccc(CC(=O)O)c3oc2c1C` [DMXAA, 5,6-dimethylxanthenone-4-acetic acid, reference compound] the “Average of P0” value [4] was 0.50±0.40 arbitrary unit and the “Average of Rmax” value [4] was 26.58±21.19 % of the NaCl control.
